These are literature values, as cited in paper PMC7099596 (ACS Central Science, 2020).

Series [1] has as its system SKBr-3 breast cancer cell line. The following applies: read-out: EC50 antiproliferative activity, SKBr-3, ref NCI ID: 122750.
The subject of series [2] is MCF-7 breast cancer cell line. The note with it: read-out: EC50 antiproliferative activity, MCF-7, ref NCI ID: 122750.

Usually EC50 stands for the concentration needed to bring the measured effect to its halfway point. Turning to `COC1=C2C[C@@H](C)C[C@H](OC)[C@H](O)[C@@H](C)/C=C(\C)[C@H](OC(N)=O)[C@@H](OC)/C=C\C=C(/C)C(=O)NC(=CC1=O)C2=O` [geldanamycin], the concentration giving a half-maximal response (EC50) in series [1] is 0.024 µM; in series [2], 0.0199 µM.
